Literature values in patent US20230079480A1, “STABLE NON-AQUEOUS COMPOSITIONS OF FUNCTIONAL INGREDIENTS AND METHODS OF MAKING THE SAME” (Nulixir Inc., priority 2021, published 2023).
Like-named read-outs stand apart in the source and are kept apart here.

How the values were obtained:
[1] = in vivo
[2] = not given; remark: listed apart in the source
[3] = water and n-octanol reference phases, pH=7 unless stated otherwise

Row | Molecule | log P [3] | other results
1 | tortuosomine | ~3 | 
2 | schisandroside C | ~1.6 | 
3 | COc1ccc2cc3[n+](cc2c1OC)CCc1cc2c(cc1-3)OCO2 [berberine] |  | bioavailability [1]: below 1%; solubility in ethanol as a function of water content [2]: decreases rapidly with water content
4 | CC(=O)OC1C=CC(=O)N(C(=O)CCc2ccccc2)C1 (stereo not drawn) [pipermethystine] | ~1.8 | 
5 | COC1=CC(=O)OC(/C=C/c2ccc(OC)cc2)C1 (stereo not drawn) [5,6-dihydroyangonin] | ~2.5 | 
6 | COc1ccc([C@@]23C=CC(=O)C[C@@H]2N(C)CC3)cc1OC [mesembrenone] |  | log P (pH 7): ~1.3
7 | COc1ccc(CCc2cc(OC)cc(=O)o2)cc1 [7,8-dihydroyangonin] | ~2.9 | 
8 | COc1cc(/C=C/c2ccccc2)oc(=O)c1 [5,6-dehydrokawain] | ~2.9 | 
9 | CC(C)=CCC[C@](C)(O[C@@H]1O[C@H](CO[C@@H]2O[C@H](CO)[C@@H](O)[C@H](O)[C@H]2O)[C@@H](O)[C@H](O)[C@H]1O)[C@H]1CC[C@]2(C)[C@@H]1[C@H](O)C[C@@H]1[C@@]3(C)CC[C@H](O[C@@H]4O[C@H](CO)[C@@H](O)[C@H](O)[C@H]4O[C@@H]4O[C@H](CO)[C@@H](O)[C@H](O)[C@H]4O)C(C)(C)[C@@H]3CC[C@]12C [ginsenoside rb1] |  | log P (pH 7): ~−1
10 | CC1=C(CO)C(=O)O[C@@H]([C@@H](C)[C@H]2CC[C@H]3[C@@H]4C[C@H](Cl)[C@]5(O)[C@@H](O)C=CC(=O)[C@]5(C)[C@H]4CC[C@]23C)C1 [6a-chloro-5b-hydroxywithaferin A] | ~3.2 | 
11 | CC(C)=C[C@H]1C[C@](C)(O)[C@@H]2[C@H]3CC[C@@H]4[C@@]5(C)CC[C@H](O[C@@H]6OC[C@H](O)[C@H](O[C@@H]7O[C@H](CO)[C@@H](O)[C@H](O)[C@H]7O)[C@H]6O[C@@H]6O[C@@H](CO)[C@H](O)[C@H]6O)C(C)(C)[C@@H]5CC[C@@]4(C)[C@@]34CO[C@@]2(C4)O1 [bacopaside X] |  | log P (pH 7): ~2.2
12 | O=CC=Cc1ccccc1 [Cinnamaldehyde] |  | inhibitory activity against fungi (many strains of fungi): strong inhibitory activity against many strains of fungi
13 | COc1ccc([C@@]23CCC(=O)C[C@@H]2N(C)CC3)cc1OC [mesembrine] | ~1.5 | 
14 | (R)-kawain | ~2.7 | 
15 | bacopaside B | ~2.8 | 
16 | COc1cc([C@H]2Oc3cc(O)c4c(=O)c(O)c(-c5ccc(O)cc5)oc4c3O[C@@H]2CO)ccc1O [rhodiolin] | ~2 | 

Row | Molecule | log P [3] | other results
17 | COc1ccc(C23C=CC(O)CC2N(C)CC3)cc1OC (stereo not drawn) [mesembrenol] |  | log P (pH 7): ~2.4
18 | N#C[C@@]1(O[C@@H]2O[C@H](CO)[C@@H](O)[C@H](O)[C@H]2O)C=C[C@@H](O)C1 [tetraphyllin B] | ~−2.5 | 
19 | COc1c2c(cc3c1-c1c(cc4c(c1OC)OCO4)C[C@H](C)[C@H](C)C3)OCO2 [(−)-schisandrin C] | ~3.5 | 
20 | Cn1c(=O)c2c(n(C)c1=O)n(C)c(=O)n2C [theacrine] | ~−1.06 | 
21 | CC(C)=CCC[C@](C)(O[C@@H]1O[C@H](CO)[C@@H](O)[C@H](O)[C@H]1O)[C@H]1CC[C@]2(C)[C@@H]1[C@H](O)C[C@@H]1[C@@]3(C)CC[C@H](O)C(C)(C)[C@@H]3[C@@H](O[C@@H]3O[C@H](CO)[C@@H](O)[C@H](O)[C@H]3O)C[C@]12C [ginsenoside rg1] |  | log P (pH 7): ~0.8
22 | herinacine A | ~2.5 | 
23 | COc1cc2c(c(OC)c1OC)-c1c(cc3c(c1OC)OCO3)CC(C)C(C)C2 (single isomer, unassigned; (-)) [(−)-schisandrin B] | ~4 | 
24 | CC(C)=C[C@H]1C[C@](C)(O)[C@H]2[C@H]3CC[C@@H]4[C@@]5(C)CC[C@H](O[C@@H]6O[C@H](CO)[C@@H](O)[C@H](O[C@@H]7O[C@H](CO)[C@@H](O)[C@H](O)[C@H]7O)[C@H]6O[C@@H]6O[C@@H](CO)[C@H](O)[C@H]6O)C(C)(C)[C@@H]5CC[C@@]4(C)[C@@]34CO[C@@]2(C4)O1 [bacoside A3] |  | log P (pH 7): ~2.1
25 | COc1cc2c(c(OC)c1OC)-c1c(cc(OC)c(OC)c1OC)C[C@](C)(O)[C@@H](C)C2 [schisandrol A] | ~3.4 | 
26 | hericerin | ~6.4 | 
27 | COc1cc(/C=C\c2ccc(OC)c(O)c2)oc(=O)c1 [11-hydroxyyangonin] | ~2.2 | 
28 | COc1cc2c(c(OC)c1OC)-c1c(cc(OC)c(OC)c1OC)C[C@](C)(O)[C@@H](C)C2 [(+)-schisandrin] | ~5 | 
29 | CC(C)=C[C@@H]1CO[C@]23C[C@]4(CO2)[C@H](CC[C@@H]2[C@@]5(C)CC[C@H](O[C@@H]6OC[C@H](O)[C@H](O[C@@H]7O[C@H](CO)[C@@H](O)[C@H](O)[C@H]7O)[C@H]6O[C@@H]6O[C@@H](CO)[C@H](O)[C@H]6O)C(C)(C)[C@@H]5CC[C@]24C)[C@H]3[C@@]1(C)O [bacopasaponin C] |  | log P (pH 7): ~2
30 | COc1nc2c(c(=O)n1C)n(C)c(=O)n2C [methylliberine] | ~−0.083 | 
31 | COc1cc2c(c(OC)c1OC)-c1c(cc(OC)c(OC)c1OC)C[C@H](C)[C@H](C)C2 [(−)-schisandrin A] | ~3.6 | 
32 | COC1=CC(=O)O[C@@H](CCc2ccc3c(c2)OCO3)C1 [7,8-dihydromethysticin] | ~2.2 | 
